From PubChem BioAssay (NCI)
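Cultured in 96-well plates, cells were exposed to test compound for 48 hours across five concentrations. GI50 is the concentration that inhibits growth by half. TGI denotes the concentration required for complete inhibition of growth.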

How the values were obtained:
Assay in all cases: NCI-60 cell line screen, 48 h
OVCAR-3 ovarian = system: OVCAR-3 ovarian
HCT-15 colon = system: HCT-15 colon
M14 melanoma = system: M14 melanoma
KM12 colon = system: KM12 colon
SNB-78 CNS = system: SNB-78 CNS
UACC-62 melanoma = system: UACC-62 melanoma
786-0 renal = system: 786-0 renal
DLD-1 colon = system: DLD-1 colon
OVCAR-8 ovarian = system: OVCAR-8 ovarian
HS 578T breast = system: HS 578T breast

C=CC1C(OC2OC(CO)C(O)C(O)C2O)OC=C(C(=O)OC)C1CC=O (configuration not stated)
TGI (OVCAR-3 ovarian): > 100 µM
TGI (HCT-15 colon): > 100 µM
TGI (M14 melanoma): > 100 µM
TGI (KM12 colon): > 100 µM
TGI (SNB-78 CNS): > 100 µM
TGI (UACC-62 melanoma): > 100 µM
TGI (786-0 renal): > 100 µM
TGI (DLD-1 colon): > 100 µM

O=c1[nH]c(-c2ccc(-c3nc4cc([N+](=O)[O-])ccc4c(=O)[nH]3)cc2)nc2cc([N+](=O)[O-])ccc12
TGI (OVCAR-8 ovarian): > 100 µM
TGI (OVCAR-3 ovarian): > 100 µM
TGI (HCT-15 colon): > 100 µM
TGI (M14 melanoma): > 100 µM
TGI (KM12 colon): > 100 µM
TGI (SNB-78 CNS): > 100 µM
TGI (UACC-62 melanoma): > 100 µM
TGI (786-0 renal): > 100 µM
TGI (DLD-1 colon): > 100 µM

C/C=C/C=C/CCCCCCCCCCCCCC1(OC)C=CC(CC(=O)OC)OO1 (configuration not stated)
GI50 (OVCAR-8 ovarian): 3.99 µM
TGI (OVCAR-8 ovarian): 14.5 µM
GI50 (OVCAR-3 ovarian): 6.7 µM
TGI (OVCAR-3 ovarian): 20.6 µM
GI50 (HCT-15 colon): 3.08 µM
TGI (HCT-15 colon): 11.2 µM
TGI (M14 melanoma): 28.6 µM
GI50 (KM12 colon): 1.56 µM
TGI (KM12 colon): 3.13 µM
TGI (UACC-62 melanoma): 28 µM
GI50 (786-0 renal): 1.75 µM
TGI (786-0 renal): 3.51 µM
GI50 (DLD-1 colon): 5.79 µM
TGI (DLD-1 colon): 23.8 µM

C[C@@H](NC1CCC[C@H]1O)c1ccccc1 (some centres not stated)
TGI (OVCAR-8 ovarian): > 100 µM
TGI (OVCAR-3 ovarian): > 100 µM
TGI (HCT-15 colon): > 100 µM
TGI (M14 melanoma): > 100 µM
TGI (KM12 colon): > 100 µM
TGI (SNB-78 CNS): > 100 µM
TGI (UACC-62 melanoma): > 100 µM
TGI (786-0 renal): > 100 µM
TGI (DLD-1 colon): > 100 µM

CC(=O)NC1CC2Oc3ccc(C)cc3C(C)(O2)C1O (configuration not stated)
TGI (OVCAR-8 ovarian): > 100 µM
TGI (OVCAR-3 ovarian): > 100 µM
TGI (HCT-15 colon): > 100 µM
TGI (M14 melanoma): > 100 µM
TGI (KM12 colon): > 100 µM
TGI (UACC-62 melanoma): > 100 µM
TGI (786-0 renal): > 100 µM
TGI (DLD-1 colon): > 100 µM

CC(C)(C#N)c1cc(C(=O)Nc2cc(Nc3ncccc3-c3ncnc4nc[nH]c34)ccc2F)cc(C(F)(F)F)c1
TGI (OVCAR-8 ovarian): > 10 µM
TGI (OVCAR-3 ovarian): > 4.1 µM
TGI (HCT-15 colon): > 2.22 µM
GI50 (M14 melanoma): 0.101 µM
TGI (M14 melanoma): 0.862 µM
GI50 (HS 578T breast): 0.919 µM
TGI (HS 578T breast): > 2.33 µM
GI50 (KM12 colon): 1.18 µM
TGI (KM12 colon): > 2.09 µM
GI50 (UACC-62 melanoma): 0.0871 µM
TGI (UACC-62 melanoma): 0.788 µM
TGI (786-0 renal): > 6.73 µM

Nc1n[nH]c2ccc([C@@H]3Nc4ccc5[nH]ncc5c4[C@H]4C5C=CC(C5)[C@@H]34)cc12 (some centres not stated)
GI50 (OVCAR-8 ovarian): 0.563 µM
TGI (OVCAR-8 ovarian): > 89.5 µM
GI50 (OVCAR-3 ovarian): 0.291 µM
TGI (OVCAR-3 ovarian): 4.23 µM
GI50 (HCT-15 colon): 0.316 µM
TGI (HCT-15 colon): 13.5 µM
GI50 (M14 melanoma): 0.231 µM
TGI (M14 melanoma): 1.13 µM
GI50 (HS 578T breast): 0.27 µM
TGI (HS 578T breast): 21.2 µM
GI50 (KM12 colon): 0.39 µM
TGI (KM12 colon): 11.4 µM
GI50 (UACC-62 melanoma): 0.213 µM
TGI (UACC-62 melanoma): 18.5 µM
GI50 (786-0 renal): 0.6 µM
TGI (786-0 renal): 16.8 µM

CC(C)c1ccc(Nc2nccc(-c3cnn4ncccc34)n2)cc1
GI50 (OVCAR-8 ovarian): 0.555 µM
TGI (OVCAR-8 ovarian): 3.74 µM
GI50 (OVCAR-3 ovarian): 0.516 µM
TGI (OVCAR-3 ovarian): > 6.26 µM
GI50 (HCT-15 colon): 0.614 µM
TGI (HCT-15 colon): > 25 µM
GI50 (M14 melanoma): 0.688 µM
TGI (M14 melanoma): 2.48 µM
GI50 (HS 578T breast): 0.623 µM
TGI (HS 578T breast): 5.16 µM
GI50 (KM12 colon): 0.201 µM
TGI (KM12 colon): 1.83 µM
GI50 (UACC-62 melanoma): 0.326 µM
TGI (UACC-62 melanoma): 1.13 µM
GI50 (786-0 renal): 0.801 µM
TGI (786-0 renal): 4.88 µM

CCOC(=O)C1=C(Nc2cccc3ccccc23)OC/C1=N\NC(=O)c1ccccc1O
TGI (OVCAR-8 ovarian): 67.8 µM
TGI (OVCAR-3 ovarian): 60 µM
TGI (HCT-15 colon): > 100 µM
TGI (M14 melanoma): > 100 µM
TGI (KM12 colon): > 100 µM
TGI (UACC-62 melanoma): 48.9 µM
TGI (786-0 renal): > 100 µM
TGI (DLD-1 colon): 81.5 µM

Clc1nc(Cl)c(-c2ccccc2)c(Cl)n1
TGI (OVCAR-8 ovarian): 10.6 µM
TGI (OVCAR-3 ovarian): 7.71 µM
TGI (HCT-15 colon): 5.01 µM
TGI (M14 melanoma): 3.33 µM
TGI (HS 578T breast): > 100 µM
TGI (KM12 colon): 14.6 µM
TGI (UACC-62 melanoma): 10.7 µM
TGI (786-0 renal): 6.55 µM

CCOC(=O)c1nc(Nc2ccc(Cl)cc2)c2ccccc2n1
GI50 (OVCAR-8 ovarian): 12.3 µM
TGI (OVCAR-8 ovarian): 28.5 µM
GI50 (OVCAR-3 ovarian): 6.11 µM
TGI (OVCAR-3 ovarian): 13.2 µM
GI50 (HCT-15 colon): 14.9 µM
TGI (HCT-15 colon): > 50 µM
GI50 (M14 melanoma): 12.4 µM
TGI (M14 melanoma): 30.6 µM
GI50 (HS 578T breast): 11.3 µM
TGI (HS 578T breast): 27.2 µM
GI50 (KM12 colon): 7.42 µM
TGI (KM12 colon): 15.1 µM
GI50 (UACC-62 melanoma): 10 µM
TGI (UACC-62 melanoma): 20.5 µM
GI50 (786-0 renal): 10.4 µM
TGI (786-0 renal): 21.4 µM

O=C1CCC2(c3ccccc3)Nc3ncccc3N12 (configuration not stated)
TGI (OVCAR-8 ovarian): > 100 µM
TGI (OVCAR-3 ovarian): > 100 µM
TGI (HCT-15 colon): > 100 µM
TGI (M14 melanoma): > 100 µM
TGI (KM12 colon): > 100 µM
TGI (SNB-78 CNS): > 100 µM
TGI (UACC-62 melanoma): > 100 µM
TGI (786-0 renal): > 100 µM
TGI (DLD-1 colon): > 100 µM

CC12CC(OC(=O)[C@]1(C)O)[C@@H]([C@]1(O)CC[C@H]3[C@@H]4C[C@H]5O[C@]56[C@@H](O)C=CC(=O)[C@]6(C)[C@H]4CC[C@@]31C)C2 (some centres not stated)
TGI (OVCAR-8 ovarian): 13.3 µM
TGI (OVCAR-3 ovarian): 7.72 µM
TGI (HCT-15 colon): 25.3 µM
TGI (M14 melanoma): 24.9 µM
TGI (HS 578T breast): 35.7 µM
TGI (KM12 colon): 28.7 µM
TGI (UACC-62 melanoma): 37.2 µM
TGI (786-0 renal): 10.1 µM

COc1cc(C)c(O)c(C(=O)O)c1
TGI (OVCAR-8 ovarian): > 100 µM
TGI (OVCAR-3 ovarian): > 100 µM
TGI (HCT-15 colon): > 100 µM
TGI (M14 melanoma): > 100 µM
TGI (KM12 colon): > 100 µM
TGI (SNB-78 CNS): > 100 µM
TGI (UACC-62 melanoma): > 100 µM
TGI (786-0 renal): > 100 µM
TGI (DLD-1 colon): > 100 µM

O=C(CCc1cc(-c2ccccc2)nc(=S)[nH]1)Nc1ccccc1[N+](=O)[O-]
TGI (OVCAR-8 ovarian): > 100 µM
TGI (OVCAR-3 ovarian): > 100 µM
TGI (HCT-15 colon): > 100 µM
TGI (M14 melanoma): > 100 µM
TGI (KM12 colon): > 100 µM
TGI (SNB-78 CNS): > 100 µM
TGI (UACC-62 melanoma): > 100 µM
TGI (786-0 renal): > 100 µM

COC(=O)C1=C(O)c2cc3c(cc2[C@H](c2cc(OC)c(OC)c(OC)c2)C1C(=O)OC)OCO3 (some centres not stated)
TGI (OVCAR-8 ovarian): > 100 µM
TGI (OVCAR-3 ovarian): 92.4 µM
TGI (HCT-15 colon): > 100 µM
TGI (M14 melanoma): > 100 µM
TGI (KM12 colon): > 100 µM
TGI (SNB-78 CNS): > 100 µM
TGI (UACC-62 melanoma): 99.4 µM
TGI (786-0 renal): > 100 µM
TGI (DLD-1 colon): > 100 µM
